Reference: patent publication US20080249080A1, “Benzodiazepine Derivatives and Uses Thereof on Medical Field” (priority 2005, published 2008)

Experiments:
K562 cell line [1] = assay: DNA fragmentation, K562 leukemic cell line; format: cell-based, human; conditions: 10 μM, 24 and 48 hours, FIGS. 18, 20, 21
Description: (§1) Subsequently, the same cell lines, except OVCAR3, were tested with fourteen new synthetic compounds at 10 μM concentration for 24 and 48 hours: eleven induced the expected cellular death.

[2] = tested on: NPA papillary thyroid carcinoma cell line; assay: DNA fragmentation, NPA; format: cell-based, human; conditions: 10 μM, 24 and 48 hours
Description: (§2) The authors also have tested compounds according to the invention, in particular RS-678 and RS-779 compounds, also on OVCAR3 ovary carcinoma cell lines, ARO anaplastic thyroid and NPA papillary thyroid human carcinoma cell lines.
as §1

[3] = tested on: ARO anaplastic thyroid carcinoma cell line; assay: DNA fragmentation, ARO; format: cell-based, human; conditions: 10 μM, 24 and 48 hours
Description: as §2, §1

[4] = tested on: tested cell lines (K562, ARO, NPA); assay: Relative cellular death in the tested cell lines; format: cell-based, human
Description: as §1

[5] = tested on: mixed lymphocytic cultures from marrow or peripheral blood of patients suffering from chronic myelogenous leukemia; assay: DNA fragmentation, mixed lymphocytic cultures of CML patients; format: cell-based, human; conditions: samples from patients (some Glivec resistant); 10 μM; 24, 48 and 72 hours; FIGS. 12-14
HL-60 and Jurkat cells = conditions: laboratory experiments; cited from earlier work
ARO cell line = assay: Percentage of dead cells, ARO; format: cell-based, human; conditions: after 24 hours
NPA cell line = assay: Percentage of apoptosis, NPA; format: cell-based, human; conditions: after 24 hours
K562 cell line [6] = assay: Percentage of apoptosis, K562; format: cell-based, human; conditions: after 24 hours
[7] = tested on: RET/V804L and RET/V804M mutants; conditions: cited from earlier work
[8] = tested on: RET/C634R and RET/M918T mutants; conditions: cited from earlier work
[9] = tested on: RET/E768D, RET/L790F, RET/Y791F, RET/A883F and RET/S891A mutants; conditions: cited from earlier work
K562 cell line [10] = assay: DNA fragmentation, K562 leukemic cell line; format: cell-based, human; conditions: 5, 10, 15 μM, 8, 16 and 24 hours, FIG. 1 A, B

CCOC(=O)CC1c2cccn2S(=O)(=O)c2ccccc2N1C(=O)c1ccc(F)cc1 (stereo not drawn) [RS-2652, ethyl 10,11-dihydro-10-(4-fluorobenzoyl)pyrrolo[1,2-b][1,2,5]benzothiadiazepine-11-acetate 5,5-dioxide]
DNA fragmentation (K562 cell line [1]): DNA fragmentation
DNA fragmentation [2]: DNA fragmentation
DNA fragmentation [3]: DNA fragmentation

CCOC(=O)CC1c2cccn2S(=O)(=O)c2ccccc2N1C(=O)c1ccccc1 (stereo not drawn) [RS-2645, ethyl 10,11-dihydro-10-(benzoyl)pyrrolo[1,2-b][1,2,5]benzo-thiadiazepine-11-acetate 5,5-dioxide]
DNA fragmentation (K562 cell line [1]): DNA fragmentation
DNA fragmentation [2]: DNA fragmentation
DNA fragmentation [3]: DNA fragmentation
cellular death relative to other compounds [4]: greater cellular death

CCOC(=O)CC1Nc2ccccc2S(=O)(=O)n2cccc21 (stereo not drawn) [RS-752, ethyl 10,11-dihydropyrrolo[1,2-b][1,2,5]benzothiadiazepine-11-acetate 5,5-dioxide]
DNA fragmentation (K562 cell line [1]): DNA fragmentation
DNA fragmentation [5]: DNA fragmentation
DNA fragmentation [2]: DNA fragmentation
DNA fragmentation [3]: DNA fragmentation

COc1cccc2c1C(=O)c1c(O)c3c(c(O)c1C2=O)C[C@@](O)(C(=O)CO)C[C@@H]3O[C@H]1C[C@H](N)[C@H](O)[C@H](C)O1 [doxorubicin]
induction of apoptosis (HL-60 and Jurkat cells): able to induce apoptosis

CCOC(=O)CC1c2cccn2S(=O)(=O)c2ccccc2N1C(=O)c1cccc2ccccc12 (stereo not drawn) [RS-2661, ethyl 10,11-dihydro-10-(1-naphtoyl)pyrrolo[1,2-b][1,2,5]benzothiadiazepine-11-acetate 5,5-dioxide]
DNA fragmentation (K562 cell line [1]): DNA fragmentation
DNA fragmentation [2]: DNA fragmentation
DNA fragmentation [3]: DNA fragmentation

CCOC(=O)C1c2cccn2S(=O)(=O)c2ccccc2N1C(=O)c1ccc(F)cc1 (stereo not drawn) [RS-2632, ethyl 10,11-dihydro-10-(4-fluorobenzoyl)pyrrolo[1,2-b][1,2,5]benzothiadiazepine-11-carboxylate 5,5-dioxide]
DNA fragmentation (K562 cell line [1]): DNA fragmentation
DNA fragmentation [2]: DNA fragmentation
DNA fragmentation [3]: DNA fragmentation

COc1cc([C@@H]2c3cc4c(cc3[C@@H](O[C@@H]3O[C@@H]5CO[C@@H](C)O[C@H]5[C@H](O)[C@H]3O)[C@H]3COC(=O)[C@H]23)OCO4)cc(OC)c1O [etoposide]
induction of apoptosis (HL-60 and Jurkat cells): able to induce apoptosis

CCOC(=O)C1c2cccn2S(=O)(=O)c2ccccc2N1C(=O)c1ccc(Cl)cc1 (stereo not drawn) [RS-2630, ethyl 10,11-dihydro-10-(4-chlorobenzoyl)pyrrolo[1,2-b][1,2,5]benzothiadiazepine-11-carboxylate 5,5-dioxide]
DNA fragmentation (K562 cell line [1]): DNA fragmentation
percentage of dead cells (ARO cell line): approximately 60%
percentage of apoptosis (NPA cell line): 80%
DNA fragmentation [2]: DNA fragmentation
DNA fragmentation [3]: DNA fragmentation
percentage of apoptosis (K562 cell line [6]): 85%
cellular death relative to other compounds [4]: greater cellular death

CC[C@@]1(O)C(=O)OCc2c1cc1n(c2=O)Cc2cc3ccccc3nc2-1 [camptothecin]
induction of apoptosis (HL-60 and Jurkat cells): able to induce apoptosis

COC(=O)CC1c2cccn2N(C)c2ccccc2N1C(=O)c1ccccc1 (stereo not drawn) [RS-337, methyl 10,11-dihydro-5-methyl-10-benzoyl-5H-pyrrolo[1,2-b][1,2,5]-benzotriazepine-11-acetate]
DNA fragmentation (K562 cell line [1]): DNA fragmentation
DNA fragmentation [2]: DNA fragmentation
DNA fragmentation [3]: DNA fragmentation

CCOC(=O)CC1c2cccn2S(=O)(=O)c2ccccc2N1C(=O)c1ccc(Cl)cc1 (stereo not drawn) [RS-2660, ethyl 10,11-dihydro-10-(4-chlorobenzoyl)pyrrolo[1,2-b][1,2,5]benzothiadiazepine-11-acetate 5,5-dioxide]
DNA fragmentation (K562 cell line [1]): DNA fragmentation
DNA fragmentation [2]: DNA fragmentation
DNA fragmentation [3]: DNA fragmentation

COc1cccc2c1C(=O)c1c(O)c3c(c(O)c1C2=O)C[C@@](O)(C(C)=O)C[C@@H]3O[C@H]1C[C@H](N)[C@H](O)[C@H](C)O1 [daunoribucin]
induction of apoptosis (HL-60 and Jurkat cells): able to induce apoptosis

CCOC(=O)C1c2cccn2S(=O)(=O)c2ccccc2N1C(=O)c1ccccc1 (stereo not drawn) [RS-2629, ethyl 10,11-dihydro-10-(benzoyl)pyrrolo[1,2-b][1,2,5]benzo-thiadiazepine-11-carboxylate 5,5-dioxide]
DNA fragmentation (K562 cell line [1]): DNA fragmentation
percentage of dead cells (ARO cell line): approximately 60%
percentage of apoptosis (NPA cell line): 80%
DNA fragmentation [2]: DNA fragmentation
DNA fragmentation [3]: DNA fragmentation
percentage of apoptosis (K562 cell line [6]): 85%
cellular death relative to other compounds [4]: greater cellular death

O=C(OC(c1ccc(Cl)cc1)C1Nc2ccccc2S(=O)(=O)n2cccc21)c1ccccc1 (stereo not drawn) [RS-786, 11-(4-Chlorophenybenzoyloxymethylene)10,11-dihydro pyrrolo[1,2-b][1,2,5]benzothiadiazepine 5,5-dioxide]
DNA fragmentation (K562 cell line [1]): not present
DNA fragmentation [2]: not present
DNA fragmentation [3]: not present

O=S1(=O)c2ccccc2NC(CO)c2cccn21 (stereo not drawn) [RS-750, 10,11-dihydropyrrolo [1,2-b][1,2,5]benzothiadiazepine-11-methanol 5,5-dioxide]
DNA fragmentation (K562 cell line [1]): not present
DNA fragmentation [2]: not present
DNA fragmentation [3]: not present

Cc1ccc(-c2nn(C(C)(C)C)c3ncnc(N)c23)cc1 [PP1]
sensitivity to the action of inhibitors [7]: less sensitive
block of the transforming activity [8]: able to block
inhibition of in vivo self-phosphorylation [9]: inhibited effectively

O=C(O)CC1Nc2ccccc2S(=O)(=O)n2cccc21 (stereo not drawn) [RS-761, 10,11-dihydropyrrolo[1,2-b][1,2,5]benzothiadiazepine-11-acetic 5,5-dioxide acid]
DNA fragmentation (K562 cell line [1]): not present
DNA fragmentation [2]: not present
DNA fragmentation [3]: not present

CCOC(=O)C1c2cccn2S(=O)(=O)c2ccccc2N1C(=O)c1cccc2ccccc12 (stereo not drawn) [RS-2631, ethyl 10,11-dihydro-10-(1-naphtoyl)pyrrolo[1,2-b][1,2,5]benzo-thiadiazepine-11-carboxylate 5,5-dioxide]
DNA fragmentation (K562 cell line [1]): DNA fragmentation
DNA fragmentation [2]: DNA fragmentation
DNA fragmentation [3]: DNA fragmentation

O=C(O)C1Nc2ccccc2S(=O)(=O)n2cccc21 (stereo not drawn) [RS-735, 10,11-dihydropyrrolo[1,2-b][1,2,5]benzothiadiazepine-11-carboxylic 5,5-dioxide acid]
DNA fragmentation (K562 cell line [1]): not present
DNA fragmentation [2]: not present
DNA fragmentation [3]: not present
apoptosis / DNA fragmentation (K562 cell line [10]): not able to produce the DNA fragmentation

COC(=O)CC1c2cccn2N(C)c2ccccc2N1C(=O)c1ccc(OC)cc1 (stereo not drawn) [RS-421, methyl 10,11-dihydro-5-methyl-10-(4-metoxybenzoyl)-5H-pyrrolo[1,2-b][1,2,5]-benzotriazepine-11-acetate]
DNA fragmentation (K562 cell line [1]): DNA fragmentation
DNA fragmentation [2]: DNA fragmentation
DNA fragmentation [3]: DNA fragmentation
